Experimental data: ChEMBL document CHEMBL1149081, “Identification and structure-activity relationships of ortho-biphenyl carboxamides as potent Smoothened antagonists inhibiting the Hedgehog signaling pathway” (Bioorg Med Chem Lett, 2009)

Experiments:
[1] = Inhibition of Hedgehog signaling pathway in mouse TM3 cells bearing pTA-8xGli-Luc reporter construct assessed as transcriptional modulation of Gli after 48 hrs by luciferase assay; details: TM3, 48 h
Protein smoothened [2] = molecular target: Protein smoothened (Homo sapiens, UniProt Q99835); experiment: Antagonist activity at human Smo receptor expressed in CHO cells by [3H]Hh-Ag binding assay; format: cell-based
Sequence of Protein smoothened (Homo sapiens, UniProt Q99835) (Q99835 whole entry): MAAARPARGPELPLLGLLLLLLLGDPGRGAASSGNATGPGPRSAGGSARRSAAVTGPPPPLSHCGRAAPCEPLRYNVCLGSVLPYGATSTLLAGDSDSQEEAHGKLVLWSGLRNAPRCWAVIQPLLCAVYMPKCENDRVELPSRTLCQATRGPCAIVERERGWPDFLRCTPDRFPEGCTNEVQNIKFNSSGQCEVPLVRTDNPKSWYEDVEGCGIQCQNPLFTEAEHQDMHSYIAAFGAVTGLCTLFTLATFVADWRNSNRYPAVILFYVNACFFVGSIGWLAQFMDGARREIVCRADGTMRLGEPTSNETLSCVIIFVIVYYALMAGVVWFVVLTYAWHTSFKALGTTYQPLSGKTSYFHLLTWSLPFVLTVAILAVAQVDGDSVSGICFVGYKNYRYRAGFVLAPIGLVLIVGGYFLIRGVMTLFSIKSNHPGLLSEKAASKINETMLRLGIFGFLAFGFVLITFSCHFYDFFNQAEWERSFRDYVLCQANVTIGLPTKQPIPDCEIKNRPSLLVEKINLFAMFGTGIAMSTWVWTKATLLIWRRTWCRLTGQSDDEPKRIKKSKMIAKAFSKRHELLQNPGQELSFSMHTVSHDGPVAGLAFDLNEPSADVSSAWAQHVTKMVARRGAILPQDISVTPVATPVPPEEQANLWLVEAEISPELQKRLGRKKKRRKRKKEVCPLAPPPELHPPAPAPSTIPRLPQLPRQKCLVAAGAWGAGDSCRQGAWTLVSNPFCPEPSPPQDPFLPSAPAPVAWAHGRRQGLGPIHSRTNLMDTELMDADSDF

Protein smoothened [3] = molecular target: Protein smoothened (Mus musculus, UniProt P56726); experiment: Antagonist activity at mouse Smo receptor expressed in CHO cells by [3H]Hh-Ag binding assay; format: cell-based
Sequence of Protein smoothened (Mus musculus, UniProt P56726) (P56726 whole entry): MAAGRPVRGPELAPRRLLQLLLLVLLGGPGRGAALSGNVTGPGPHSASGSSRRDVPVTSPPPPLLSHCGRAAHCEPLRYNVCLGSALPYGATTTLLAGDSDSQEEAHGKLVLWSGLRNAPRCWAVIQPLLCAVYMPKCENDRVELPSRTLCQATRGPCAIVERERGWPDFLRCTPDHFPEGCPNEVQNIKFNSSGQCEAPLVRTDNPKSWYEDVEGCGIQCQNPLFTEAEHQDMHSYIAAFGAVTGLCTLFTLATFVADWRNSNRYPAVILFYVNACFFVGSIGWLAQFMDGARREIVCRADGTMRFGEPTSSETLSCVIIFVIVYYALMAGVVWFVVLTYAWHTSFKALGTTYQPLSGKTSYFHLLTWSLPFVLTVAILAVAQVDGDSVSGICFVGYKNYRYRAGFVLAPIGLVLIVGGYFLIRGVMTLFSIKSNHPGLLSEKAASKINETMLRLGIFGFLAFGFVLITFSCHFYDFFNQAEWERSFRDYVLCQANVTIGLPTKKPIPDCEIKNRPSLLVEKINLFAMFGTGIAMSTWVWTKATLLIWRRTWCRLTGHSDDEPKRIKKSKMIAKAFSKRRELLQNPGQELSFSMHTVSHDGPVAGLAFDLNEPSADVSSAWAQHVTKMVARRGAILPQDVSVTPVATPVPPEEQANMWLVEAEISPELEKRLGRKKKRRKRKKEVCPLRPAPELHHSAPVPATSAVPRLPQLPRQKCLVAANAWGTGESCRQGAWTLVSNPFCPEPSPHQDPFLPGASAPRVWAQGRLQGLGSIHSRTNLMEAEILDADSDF

[4] = molecular target: T1, Microsomal triglyceride transfer protein large subunit (Homo sapiens, UniProt P55157); experiment: Inhibition of MTP in human HepG2 cells assessed as apolipoprotein B production by ELISA; format: cell-based
T1 sequence (P55157 whole entry): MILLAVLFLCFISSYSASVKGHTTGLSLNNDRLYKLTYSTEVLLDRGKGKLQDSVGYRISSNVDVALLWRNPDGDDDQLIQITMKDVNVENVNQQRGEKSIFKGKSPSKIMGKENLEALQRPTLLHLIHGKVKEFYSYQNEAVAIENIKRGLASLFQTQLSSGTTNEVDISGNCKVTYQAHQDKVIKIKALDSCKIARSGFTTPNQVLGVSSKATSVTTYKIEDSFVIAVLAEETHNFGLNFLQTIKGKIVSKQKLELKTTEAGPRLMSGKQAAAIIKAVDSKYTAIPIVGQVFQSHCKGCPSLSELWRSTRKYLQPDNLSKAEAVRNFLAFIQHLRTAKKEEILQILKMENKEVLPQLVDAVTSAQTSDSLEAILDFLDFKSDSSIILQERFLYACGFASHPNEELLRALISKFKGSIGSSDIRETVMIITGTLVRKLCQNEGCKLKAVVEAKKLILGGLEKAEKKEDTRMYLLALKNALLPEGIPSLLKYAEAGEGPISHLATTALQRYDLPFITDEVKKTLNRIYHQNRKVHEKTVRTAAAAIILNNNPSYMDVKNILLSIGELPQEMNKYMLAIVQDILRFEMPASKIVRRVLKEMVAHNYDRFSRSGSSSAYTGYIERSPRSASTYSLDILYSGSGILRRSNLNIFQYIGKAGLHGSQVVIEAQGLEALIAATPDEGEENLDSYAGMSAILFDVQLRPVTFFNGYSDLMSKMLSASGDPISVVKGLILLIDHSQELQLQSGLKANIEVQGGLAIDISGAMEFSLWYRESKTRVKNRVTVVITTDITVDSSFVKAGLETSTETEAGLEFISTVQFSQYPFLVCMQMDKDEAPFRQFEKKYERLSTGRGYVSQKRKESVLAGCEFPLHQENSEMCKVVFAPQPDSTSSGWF

| SMILES | IC50 [1] | IC50 (Protein smoothened [2]) | IC50 (Protein smoothened [3]) | IC50 [4] |
| --- | --- | --- | --- | --- |
| CC(=O)Nc1ccc(CN[C@H]2Cc3ccc(NC(=O)c4cccc(C)c4-c4ccc(C(F)(F)F)cc4)cc3C2)cc1 | 0.45 µM | 0.34 µM | 0.36 µM |  |
| Cc1cccc(C(=O)Nc2ccc3c(c2)C[C@@H](NCc2ccccc2)C3)c1-c1ccc(C(F)(F)F)cc1 | 0.021 µM | 0.014 µM | 0.008 µM |  |
| CC1=C2C[C@H]3[C@@H](CC=C4C[C@@H](O)CC[C@@]43C)[C@@H]2CC[C@]12O[C@@H]1C[C@H](C)CN[C@H]1[C@H]2C [CYCLOPAMINE] | 0.046 µM |  |  |  |
| Cc1cccc(C(=O)Nc2ccc3c(c2)C[C@@H](NCc2ccco2)C3)c1-c1ccc(C(F)(F)F)cc1 | 0.023 µM |  | 0.014 µM |  |
| Cc1cccc(C(=O)Nc2ccc3c(c2)C[C@@H](NCc2scnc2C)C3)c1-c1ccc(C(F)(F)F)cc1 | 0.16 µM | 0.17 µM | 0.12 µM |  |
| Cc1cccc(C(=O)Nc2ccc3c(c2)CC(NS(=O)(=O)c2ccccc2)C3)c1-c1ccc(C(F)(F)F)cc1 (racemic) | 1.25 µM |  |  |  |
| Cc1cccc(C(=O)Nc2ccc3c(c2)C[C@@H](NCc2ccncc2)C3)c1-c1ccc(C(F)(F)F)cc1 | 0.15 µM | 0.24 µM | 0.19 µM |  |
| Cc1cccc(C(=O)Nc2ccc3c(c2)C[C@@H](NCc2cccs2)C3)c1-c1ccc(C(F)(F)F)cc1 | 0.01 µM | 0.007 µM | 0.009 µM |  |
| O=C(Nc1ccc2c(c1)CC(NCc1ccccn1)C2)c1ccccc1-c1ccc(Cl)cc1 (racemic) | 4.95 µM |  | 2.71 µM |  |
| COC(=O)N[C@H]1Cc2ccc(NC(=O)c3cccc(C)c3-c3ccc(C(F)(F)F)cc3)cc2C1 | 2.15 µM | 7.52 µM | 5.09 µM | 0.0043 µM |
| Cc1cccc(C(=O)Nc2ccc3c(c2)C[C@H](NCc2nccs2)C3)c1-c1ccc(C(F)(F)F)cc1 | 4.27 µM | 0.77 µM | 1.19 µM |  |
| Cc1cccc(C(=O)Nc2ccc3c(c2)C[C@@H](NCc2cnc4ccccc4c2)C3)c1-c1ccc(C(F)(F)F)cc1 | 1.29 µM | 0.21 µM | 0.35 µM |  |
| O=C(Nc1ccc2c(c1)CC(NCc1ccccn1)C2)c1ccccc1-c1ccc(C(F)(F)F)cc1 (racemic) | 0.2 µM | 0.79 µM | 0.49 µM |  |
| Cc1cccc(C(=O)Nc2ccc3c(c2)C[C@@H](NC(c2ccccc2)C(F)(F)F)C3)c1-c1ccc(C(F)(F)F)cc1 (some centres not stated) | 0.033 µM | 0.055 µM | 0.057 µM |  |
| Cc1cccc(C(=O)Nc2ccc3c(c2)CC(NCc2ccccn2)C3)c1-c1ccc(C(F)(F)F)cc1 (racemic) | 0.1 µM |  | 0.11 µM |  |
| COc1ccc(CN[C@H]2Cc3ccc(NC(=O)c4cccc(C)c4-c4ccc(C(F)(F)F)cc4)cc3C2)cc1 | 0.36 µM | 0.12 µM | 0.093 µM |  |

| SMILES | IC50 [1] | IC50 (Protein smoothened [2]) | IC50 (Protein smoothened [3]) | IC50 [4] |
| --- | --- | --- | --- | --- |
| Cc1cccc(C(=O)Nc2ccc3c(c2)C[C@@H](NCC2CCOC2)C3)c1-c1ccc(C(F)(F)F)cc1 (some centres not stated) | 3.7 µM |  | 16.7 µM |  |
| Cc1cccc(C(=O)Nc2ccc3c(c2)C[C@@H](NC(C)c2ccccc2)C3)c1-c1ccc(C(F)(F)F)cc1 (some centres not stated) | 0.088 µM | 0.032 µM | 0.029 µM |  |
| Cc1cccc(C(=O)Nc2ccc3c(c2)C[C@@H](NCc2ccccn2)C3)c1-c1ccc(C(F)(F)F)cc1 | 0.1 µM | 0.12 µM | 0.057 µM | 2.35 µM |
| COC(=O)NC1Cc2ccc(NC(=O)c3cccc(C)c3-c3ccc(C(F)(F)F)cc3)cc2C1 (racemic) | 1.33 µM | 2.7 µM | 2.96 µM |  |
| COc1ccc(-c2ccc(C(F)(F)F)cc2)c(C(=O)Nc2ccc3c(c2)CC(NCc2ccccn2)C3)c1 (racemic) | > 5 µM |  | > 5 µM |  |
| Cc1cccc(C(=O)Nc2ccc3c(c2)C[C@@H](Nc2ccccc2)C3)c1-c1ccc(C(F)(F)F)cc1 | 0.041 µM | 0.13 µM | 0.082 µM |  |
| Cc1cccc(C(=O)Nc2ccc3c(c2)C[C@H](NCc2ccccn2)C3)c1-c1ccc(C(F)(F)F)cc1 | 4.89 µM |  | 8.77 µM | 0.0035 µM |
| Cc1ccc(CN[C@H]2Cc3ccc(NC(=O)c4cccc(C)c4-c4ccc(C(F)(F)F)cc4)cc3C2)o1 | 0.008 µM | 0.01 µM | 0.006 µM |  |
| Cc1cccc(C(=O)Nc2ccc3c(c2)CC(NCc2ccccc2)C3)c1-c1ccc(C(F)(F)F)cc1 (racemic) | 0.093 µM |  |  |  |
| Cc1cccc(C(=O)Nc2ccc3c(c2)C[C@@H](NCc2nccs2)C3)c1-c1ccc(C(F)(F)F)cc1 | 0.025 µM | 0.03 µM | 0.01 µM |  |
| Cc1csc(CN[C@H]2Cc3ccc(NC(=O)c4cccc(C)c4-c4ccc(C(F)(F)F)cc4)cc3C2)n1 | 0.017 µM | 0.007 µM | 0.004 µM |  |
| O=C(Nc1ccc2c(c1)CC(NCc1ccccn1)C2)c1ccccc1-c1ccccc1 (racemic) | 1 µM | 1.15 µM | 1.42 µM |  |
| COC(=O)N[C@@H]1Cc2ccc(NC(=O)c3cccc(C)c3-c3ccc(C(F)(F)F)cc3)cc2C1 | 1.2 µM | 3.42 µM | 2.48 µM | 0.0009 µM |
| Cc1cccc(C(=O)Nc2ccc3c(c2)CC(NC(=O)c2ccccc2)C3)c1-c1ccc(C(F)(F)F)cc1 (racemic) | 0.6 µM |  |  |  |
| Cc1ccc(-c2ccc(C(F)(F)F)cc2)c(C(=O)Nc2ccc3c(c2)CC(NCc2ccccn2)C3)c1 (racemic) | 6.8 µM |  | 8.68 µM |  |
